{
  "source": "patent US20240398845A1",
  "about": "“USE OF SGLT-2 INHIBITORS FOR THE PREVENTION AND/OR TREATMENT OF CARDIAC DISEASES IN NON-HUMAN MAMMALS EXCLUDING FELINES, IN PARTICULAR CANINES” (BOEHRINGER INGELHEIM VETMEDICA GMBH, priority 2021, published 2024)",
  "system": "Beagle dogs with asymptomatic/preclinical ACVIM stage B2 MMVD",
  "experiment": "Exploratory laboratory study in dogs with asymptomatic/preclinical myxomatous mitral valve disease (MMVD)",
  "type": "in vivo, dog",
  "excerpt": "Echocardiographic findings in dogs with MMVD stage B2 include degenerative valvular changes, increased left atrial dimension (LA/AO-ratio≥1.6), and increased left ventricular end-diastolic dimensions normalized to body weight (LVIDDN≥1.7) (Keene et al., 2019). For evaluation of survival time a severity score (MINE score) based on the echocardiographic variables above, the cardiac contractility (fractional shortening, FS %), and transmitral peak E-wave velocity was initiated (Vezzosi T et al., J Vet Intern Med. 2021, 35(3):1238-1244). The MINE score is associate with the survival time and provides therefore prognostic information.\nThe objective of this study was to evaluate velagliflozin, a sodium-glucose co-transporter-2 inhibitor, as a treatment for dogs with asymptomatic/preclinical ACVIM stage B2 MMVD. Three Beagle dogs previously diagnosed with this condition by a veterinary cardiologist were included in the study.\nBaseline assessments included body weight measurements, veterinary examinations, echocardiographs, urinalysis, blood collections for hematology, biochemistry, BHB, NT-proBNP, cTnI, and erythropoietin analysis as well as radiographs to assess heart size, pulmonary edema, and congestion. On study Day 0, once daily oral administration of velagliflozin (0.05 mg/kg bodyweight) was initiated. Veterinary examinations, urinalysis, and blood collections for analysis of the above-mentioned parameters were repeated on Days 32, 59, and 91. Echocardiographs were repeated on Days 23, 58, and 93. General health observations are conducted twice daily, and body weights measured approximately every 3 weeks.\nAdditionally, the “The Mitral Insufficiency Echocardiographic” score, a severity classification of myxomatous mitral valve disease (MMVD) in dogs (MINE score) was calculated (Vezzosi et al., 2021). This score as an easy-to-use echocardiographic classification of severity of MMVD based on routinely acquired echocardiographic variables. The hypothesis was that the MINE score is clinically effective since it is associated with median survival time of the animals (see tables 5 and 6 below).",
  "key": {"[1]": {"settings": "Azul, Day 58, velagliflozin 0.05 mg/kg bodyweight oral once daily"}},
  "data": [
    {"smiles": "N#Cc1ccc([C@@H]2O[C@H](CO)[C@@H](O)[C@H](O)[C@H]2O)cc1Cc1ccc(C2CC2)cc1", "note": "[velagliflozin, Velagliflozin]", "values": [
      {"measurement": "MINE severity classification", "setting": "Azul, D93, moderate at baseline", "result": "severe"},
      {"measurement": "LVIDDN reduction from baseline", "setting": "[1]", "result": 3.56, "unit": "%"},
      {"measurement": "decrease from baseline in LA/Ao ratio", "setting": "[1]", "result": 17.3, "unit": "%"},
      {"measurement": "NT-proBNP reduction from baseline", "setting": "Azul, Day 59, within the reference range", "result": 76.3, "unit": "%"},
      {"measurement": "NT-proBNP reduction from baseline", "setting": "Azul, Day 91", "result": 45.8, "unit": "%"},
      {"measurement": "Total MINE score", "setting": "Azul, Day 93, base line 7 (Moderate), increase due to increase in FS %, might be due to cystitis", "result": "8 (Increase due to increase in FS %, also showed an"},
      {"measurement": "LVIDDN change versus baseline", "setting": "Azul, Day 93, just above baseline", "result": "+0.81%"},
      {"measurement": "LA/Ao ratio below baseline", "setting": "Azul, Day 93, velagliflozin 0.05 mg/kg bodyweight oral once daily", "result": 1.08, "unit": "%"},
      {"measurement": "adverse event in one animal", "setting": "Azul, during treatment, recovered", "result": "developed a cystitis"},
      {"measurement": "LVIDDN (in words)", "setting": "Azul, summary", "result": "no change"},
      {"measurement": "LA/AO-ratio (in words)", "setting": "Azul, summary at D93", "result": "no change"},
      {"measurement": "LVIDDN (in words)", "setting": "Birdie and Shelby, summary, within day-to-day variability", "result": "slight decrease (improvement)"},
      {"measurement": "LVIDDN reduction from baseline", "setting": "Birdie, Day 93", "result": 5.25, "unit": "%"},
      {"measurement": "MINE severity classification", "setting": "Birdie, Day 93, Mild at base line", "result": "Mild (4-5)"},
      {"measurement": "Total MINE score", "setting": "Birdie, Day 93, base line 5 (Mild)", "result": 5},
      {"measurement": "reduction from baseline in LA/Ao ratio", "setting": "Birdie, Day 93, velagliflozin 0.05 mg/kg bodyweight oral once daily", "result": 12.73, "unit": "%"},
      {"measurement": "left atrial size (in words)", "setting": "Birdie, summary, beyond day-to-day variability", "result": "normalization of the left atrial size"},
      {"measurement": "NT-proBNP reduction from baseline", "setting": "Shelby, Day 91, still above the reference range", "result": 45.6, "unit": "%"},
      {"measurement": "LVIDDN reduction from baseline", "setting": "Shelby, Day 93", "result": 3.54, "unit": "%"},
      {"measurement": "MINE severity classification", "setting": "Shelby, Day 93, Moderate at base line", "result": "Moderate (6-7)"},
      {"measurement": "Total MINE score", "setting": "Shelby, Day 93, base line 7 (Moderate), decrease due to improvement in left ventricular diameter", "result": 6},
      {"measurement": "LA/AO-ratio (in words)", "setting": "Shelby, summary, within day-to-day variability", "result": "slight increase (worsening)"},
      {"measurement": "reduction in LA/Ao ratio from baseline", "setting": "Shelby, velagliflozin 0.05 mg/kg bodyweight oral once daily", "result": "had not shown a reduction"},
      {"measurement": "survival at the time of the interim analysis", "setting": "all three dogs, D94", "result": "still alive"},
      {"measurement": "blood glucose, renal function, or serum electrolytes", "setting": "any time in any animal", "result": "no changes"},
      {"measurement": "observations following dosing", "setting": "attributed to oral administration of a liquid product", "result": "Lip smacking/licking, head shaking, grimacing, and salivating"},
      {"measurement": "most frequent abnormal observation following initiation of treatment", "setting": "group housed dogs, relationship to test product unknown, one instance also at baseline", "result": "vomit found within the housing pen"},
      {"measurement": "changes in cTnI", "setting": "three Beagle dogs, velagliflozin 0.05 mg/kg bodyweight oral once daily", "result": "do not appear to be showing a clinically significant trend"},
      {"measurement": "hematology, biochemistry, or erythropoietin parameters", "setting": "three Beagle dogs, velagliflozin 0.05 mg/kg bodyweight oral once daily, Days 32, 59, 91", "result": "No clinically significant changes"},
      {"measurement": "glucosuria", "setting": "three dogs, pharmacodynamic effectiveness", "result": "noted in all three dogs"},
      {"measurement": "development of congestive heart failure (CHF)", "setting": "three dogs, until D94, velagliflozin 0.05 mg/kg bodyweight once daily only", "result": "None of the study dogs developed congestive heart failure"},
      {"measurement": "overall disease state", "setting": "three dogs, until interim analysis at D94", "result": "stable disease states with signs of improvement"}
    ]}
  ]
}
